Experimental data reported in patent US20210322545A1 (priority 2016, published 2021).

Settings: mouse, in vivo

SMILES: CN[C@@H](C)C(=O)N[C@H](C(=O)N1CCC[C@H]1c1nc(C(=O)c2ccc(F)cc2)cs1)C1CCCCC1 [LCL161]
- body weight in combination treatment cohort: fully recovered following the last treatment
